biological target: T1, human chemokine receptor 2 isoform B (Homo sapiens, UniProt P41597); assay: Calcium mobilization assay (CHOK1-CCR2B-A5 cells, FLIPR, MCP-1 stimulated); type: cell-based; conditions: Ca mobilisation assay for CCR2, antagonist activity, 50% inhibition of specific calcium increases after 20 nM MCP-1
T1 construct: host or cells: CHOK1-CCR2B-A5 (CHO-K1)
T1 sequence (P41597 1-360 isoform P41597-2): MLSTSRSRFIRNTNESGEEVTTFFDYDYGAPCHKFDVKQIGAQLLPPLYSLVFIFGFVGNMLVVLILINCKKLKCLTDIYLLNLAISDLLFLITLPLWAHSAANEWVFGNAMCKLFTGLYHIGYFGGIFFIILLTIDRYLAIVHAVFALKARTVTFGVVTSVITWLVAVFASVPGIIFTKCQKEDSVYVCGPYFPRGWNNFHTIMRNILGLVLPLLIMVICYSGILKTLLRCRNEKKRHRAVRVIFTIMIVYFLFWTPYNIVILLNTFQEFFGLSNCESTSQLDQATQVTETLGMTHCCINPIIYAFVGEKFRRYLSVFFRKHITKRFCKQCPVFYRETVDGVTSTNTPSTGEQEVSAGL
Experimental: CHOK1-CCR2B-A5 cells (from Euroscreen) stably overexpressing the human chemokine receptor 2 isoform B were cultured in Nutrient Hams F12 medium supplemented with 5% FBS, 100 U/ml penicillin, 100 μg/ml streptomycin, 400 μg/ml G418 and 5 μg/ml puromycin.
For the assay cells were grown overnight in 384-well black clear flat bottom polystyrene plates (Costar) at 37° C. at 5% CO2. After washing with DMEM, 20 mM Hepes, 2.5 mM probenecid, 0.1% BSA (DMEM assay buffer) cells were loaded with 4 μM Fluo-4 in the same DMEM assay buffer for 2 hours at 30° C. Excess dye was removed and cells were washed with DMEM assay buffer. 384-well compound plates were prepared with DMEM assay buffer/0.5% DMSO with or without various concentrations of test compounds. Usually compounds were tested for agonist and antagonist activity.
Test compounds were added to the assay plate and agonist activity was monitored as fluorescence for 80 seconds with a FLIPR (488 nm excitation; 510-570 nm emission; Molecular Devices). After 20-30 min. of incubation at 30° C., 20 nM MCP-1 (R&D; Roche) was added and fluorescence was monitored again for 80 seconds. Increases in intracellular calcium are reported as maximum fluorescence after agonist exposure minus basal fluorescence before exposure. Antagonist activity is indicated as inhibitor concentration required for 50% inhibition of specific calcium increases.

Going from `C[C@H]1C(=O)N2[C@@H](CCN3CCC4(CC4)[C@H](O)C3)CC[C@H]2CN1C(=O)Nc1ccc(Cl)c(Cl)c1` [Example 33, (3S,6R,8aS)-6-[2-((S)-4-Hydroxy-6-aza-spiro[2.5]oct-6-yl)-ethyl]-3-methyl-4-oxo-hexahydro-pyrrolo[1,2-a]pyrazine-2-carboxylic acid (3,4-dichloro-phenyl)-amide] to `C[C@H]1C(=O)N2[C@H](CCN3CCC4(CC4)[C@H](O)C3)CCC[C@@H]2CN1C(=O)Nc1ccc(Cl)c(Cl)c1` [Example 39, (3S,6S,9aR)-6-[2-((S)-4-Hydroxy-6-aza-spiro[2.5]oct-6-yl)-ethyl]-3-methyl-4-oxo-octahydro-pyrido[1,2-a]pyrazine-2-carboxylic acid (3,4-dichloro-phenyl)-amide], the IC50 rises from 2.7 nM to 135 nM (50-fold).

Going from `C[C@H]1C(=O)N2[C@@H](CCC(=O)N3CCC4(CC4)[C@H](O)C3)CO[C@@H]2CN1C(=O)Nc1ccc(Cl)c(Cl)c1` [Example 35, (3S,6S,8aR)-3-[3-((S)-4-Hydroxy-6-aza-spiro[2.5]oct-6-yl)-3-oxo-propyl]-6-methyl-5-oxo-hexahydro-oxazolo[3,2-a]pyrazine-7-carboxylic acid (3,4-dichloro-phenyl)-amide] to `C[C@H]1C(=O)N2[C@@H](CCC(=O)N3CCC4(CC4)[C@H](O)C3)CO[C@H]2CN1C(=O)Nc1ccc(Cl)c(Cl)c1` [Example 36, (3S,6S,8aS)-3-[3-((S)-4-Hydroxy-6-aza-spiro[2.5]oct-6-yl)-3-oxo-propyl]-6-methyl-5-oxo-hexahydro-oxazolo[3,2-a]pyrazine-7-carboxylic acid (3,4-dichloro-phenyl)-amide], the IC50 rises from 5.7 nM to 9.3 nM (1.6-fold). The first is the more potent here.

Compared with `C[C@H]1C(=O)N2[C@@H](CCC(=O)N3CCC4(CC4)[C@H](O)C3)COC2(C)CN1C(=O)Nc1ccc(C(F)(F)F)c(Cl)c1` (stereo partly drawn) [Example 37, (3S,6S)-3-[3-((S)-4-Hydroxy-6-aza-spiro[2.5]oct-6-yl)-3-oxo-propyl]-6,8a-dimethyl-5-oxo-hexahydro-oxazolo[3,2-a]pyrazine-7-carboxylic acid (3-chloro-4-trifluoromethyl-phenyl)-amide], `C[C@H]1C(=O)N2[C@@H](CCC(=O)N3CCC4(CC4)[C@H](O)C3)COC[C@H]2CN1C(=O)Nc1ccc(C(F)(F)F)c(Cl)c1` [Example 52, (4S,7S,9aR)—N-(3-chloro-4-(trifluoromethyl)phenyl)-4-(3-((S)-4-hydroxy-6-azaspiro[2.5]octan-6-yl)-3-oxopropyl)-7-methyl-6-oxohexahydropyrazino[2,1-c][1,4]oxazine-8(1H)-carboxamide] is 24-fold lower in IC50: 360 nM for the first, 14.7 nM for the second. The second is the more potent here.

Going from `C[C@H]1C(=O)N2[C@H](CCN3CCC4(CC4)[C@H](O)C3)COC[C@@H]2CN1C(=O)Nc1ccc(Cl)c(Cl)c1` [Example 40, (4R,7S,9aS)-4-[2-((S)-4-Hydroxy-6-aza-spiro[2.5]oct-6-yl)-ethyl]-7-methyl-6-oxo-hexahydro-pyrazino[2,1-c][1,4]oxazine-8-carboxylic acid (3,4-dichloro-phenyl)-amide] to `C[C@H]1C(=O)N2[C@@H](CCC(=O)N3CCC4(CC4)[C@H](O)C3)COC[C@H]2CN1C(=O)Nc1ccc(Cl)c(Cl)c1` [Example 51, (4S,7S,9aR)-4-[3-((S)-4-Hydroxy-6-aza-spiro[2.5]oct-6-yl)-3-oxo-propyl]-7-methyl-6-oxo-hexahydro-pyrazino[2,1-c][1,4]oxazine-8-carboxylic acid (3,4-dichloro-phenyl)-amide], the IC50 falls from 340 nM to 86.9 nM (3.9-fold).

First: C[C@H]1C(=O)N2[C@@H](CCCN3CCC4(CC4)[C@H](O)C3)CC[C@H]2CN1C(=O)Nc1ccc(Cl)c(Cl)c1 [Example 41, (3S,6S,8aS)-6-[3-((S)-4-Hydroxy-6-aza-spiro[2.5]oct-6-yl)-propyl]-3-methyl-4-oxo-hexahydro-pyrrolo[1,2-a]pyrazine-2-carboxylic acid (3,4-dichloro-phenyl)-amide]
Second: C[C@H]1C(=O)N2[C@@H](CCC(=O)N3CCC4(CC4)[C@H](O)C3)CC[C@H]2CN1C(=O)Nc1ccc(Cl)c(Cl)c1 [Example 42, (3S,6R,8aS)-6-[3-((S)-4-Hydroxy-6-aza-spiro[2.5]oct-6-yl)-3-oxo-propyl]-3-methyl-4-oxo-hexahydro-pyrrolo[1,2-a]pyrazine-2-carboxylic acid (3,4-dichloro-phenyl)-amide]
The IC50 of the first is 12-fold lower: 3.3 nM for the first, 40.4 nM for the second. The first is the more potent here.

Going from `C[C@H]1C(=O)N2[C@@H](CCC(=O)N3CCC4(CC4)[C@H](O)C3)CC[C@H]2CN1C(=O)Nc1ccc(C(F)(F)F)c(Cl)c1` [Example 43, (3S,6R,8aS)-6-[3-((S)-4-Hydroxy-6-aza-spiro[2.5]oct-6-yl)-3-oxo-propyl]-3-methyl-4-oxo-hexahydro-pyrrolo[1,2-a]pyrazine-2-carboxylic acid (3-chloro-4-trifluoromethyl-phenyl)-amide] to `C[C@H]1C(=O)N2[C@@H](CCN3CCC4(CC4)C(F)(F)C3)COC[C@H]2CN1C(=O)Nc1ccc(C(F)(F)F)c(Cl)c1` [Example 55, (4S,7S,9aR)—N-(3-chloro-4-(trifluoromethyl)phenyl)-4-(2-(4,4-difluoro-6-azaspiro[2.5]octan-6-yl)ethyl)-7-methyl-6-oxohexahydropyrazino[2,1-c][1,4]oxazine-8(1H)-carboxamide], the IC50 rises from 20.5 nM to 34.3 nM (1.7-fold).

Going from `C[C@H]1C(=O)N2[C@@H](CCCN3CC(F)(F)C(F)(F)C3)CC[C@H]2CN1C(=O)Nc1ccc(Cl)c(Cl)c1` [Example 44, (3S,6S,8aS)-3-Methyl-4-oxo-6-[3-(3,3,4,4-tetrafluoro-pyrrolidin-1-yl)-propyl]-hexahydro-pyrrolo[1,2-a]pyrazine-2-carboxylic acid (3,4-dichloro-phenyl)-amide] to `C[C@H]1C(=O)N2[C@@H](CCCN3CCC(F)(F)C3)CC[C@H]2CN1C(=O)Nc1ccc(Cl)c(Cl)c1` [Example 45, (3S,6S,8aS)-6-[3-(3,3-Difluoro-pyrrolidin-1-yl)-propyl]-3-methyl-4-oxo-hexahydro-pyrrolo[1,2-a]pyrazine-2-carboxylic acid (3,4-dichloro-phenyl)-amide], the IC50 falls from 473 nM to 200 nM (2.4-fold).

Compared with `C[C@H]1C(=O)N2[C@@H](CCCN3CCC(F)(F)CC3)CC[C@H]2CN1C(=O)Nc1ccc(Cl)c(Cl)c1` [Example 46, (3S,6S,8aS)-6-[3-(4,4-Difluoro-piperidin-1-yl)-propyl]-3-methyl-4-oxo-hexahydro-pyrrolo[1,2-a]pyrazine-2-carboxylic acid (3,4-dichloro-phenyl)-amide], `C[C@H]1C(=O)N2[C@@H](CCCN3CCCC(F)(F)C3)CC[C@H]2CN1C(=O)Nc1ccc(Cl)c(Cl)c1` [Example 47, (3S,6S,8aS)-6-[3-(3,3-Difluoro-piperidin-1-yl)-propyl]-3-methyl-4-oxo-hexahydro-pyrrolo[1,2-a]pyrazine-2-carboxylic acid (3,4-dichloro-phenyl)-amide] is 2.6-fold higher in IC50: 26.4 nM for the first, 67.4 nM for the second.

First: O=C(Nc1ccc(Cl)c(Cl)c1)N1CCC(=O)N2[C@@H](CCN3CCC4(CC4)[C@H](O)C3)CC[C@H]2C1 [Example 49, (7R,9aS)-7-[2-((S)-4-Hydroxy-6-aza-spiro[2.5]oct-6-yl)-ethyl]-5-oxo-hexahydro-pyrrolo[1,2-a][1,4]diazepine-2-carboxylic acid (3,4-dichloro-phenyl)-amide]
Second: C[C@H]1C(=O)N2[C@@H](CCN3CCC(F)(F)CC3)COC[C@H]2CN1C(=O)Nc1ccc(Cl)c(Cl)c1 [Example 56, (4S,7S,9aR)—N-(3,4-dichlorophenyl)-4-(2-(4,4-difluoropiperidin-1-yl)ethyl)-7-methyl-6-oxohexahydropyrazino[2,1-c][1,4]oxazine-8(1H)-carboxamide]
The IC50 of the first is 1.8-fold higher: 144 nM for the first, 81 nM for the second.

First: C[C@H]1C(=O)N2[C@@H](CCN3CCC4(CC4)C(F)(F)C3)COC[C@H]2CN1C(=O)Nc1ccc(Cl)c(Cl)c1 [Example 53, (4S,7S,9aR)—N-(3,4-dichlorophenyl)-4-(2-(4,4-difluoro-6-azaspiro[2.5]octan-6-yl)ethyl)-7-methyl-6-oxohexahydropyrazino[2,1-c][1,4]oxazine-8(1H)-carboxamide]
Second: C[C@H]1C(=O)N2[C@@H](CCN3CCC4(CC4)C(F)(F)C3)COC[C@H]2CN1C(=O)Nc1cccc(Cl)c1 [Example 54, (4S,7S,9aR)—N-(3-chlorophenyl)-4-(2-(4,4-difluoro-6-azaspiro[2.5]octan-6-yl)ethyl)-7-methyl-6-oxohexahydropyrazino[2,1-c][1,4]oxazine-8(1H)-carboxamide]
The IC50 of the first is 10-fold lower: 16.7 nM for the first, 170 nM for the second.

For `C[C@H]1C(=O)N2[C@@H](CCN3CCC(F)(F)CC3)COC[C@H]2CN1C(=O)Nc1ccc(C(F)(F)F)c(Cl)c1` [Example 57, (4S,7S,9aR)—N-(3-chloro-4-(trifluoromethyl)phenyl)-4-(2-(4,4-difluoropiperidin-1-yl)ethyl)-7-methyl-6-oxohexahydropyrazino[2,1-c][1,4]oxazine-8(1H)-carboxamide], the IC50 was 119 nM.
